Data on 13 compounds can be found in patent publication US12404241B2 (Celgene Corporation, priority 2018, dated 2025).

The DC50 is the concentration at which degradation of the target reaches its halfway point.

The target in the assay is T1, AR (Homo sapiens, UniProt P10275).
T1 construct: endogenous in cells; host or cells: VCaP cells
T1 sequence (P10275 1-920): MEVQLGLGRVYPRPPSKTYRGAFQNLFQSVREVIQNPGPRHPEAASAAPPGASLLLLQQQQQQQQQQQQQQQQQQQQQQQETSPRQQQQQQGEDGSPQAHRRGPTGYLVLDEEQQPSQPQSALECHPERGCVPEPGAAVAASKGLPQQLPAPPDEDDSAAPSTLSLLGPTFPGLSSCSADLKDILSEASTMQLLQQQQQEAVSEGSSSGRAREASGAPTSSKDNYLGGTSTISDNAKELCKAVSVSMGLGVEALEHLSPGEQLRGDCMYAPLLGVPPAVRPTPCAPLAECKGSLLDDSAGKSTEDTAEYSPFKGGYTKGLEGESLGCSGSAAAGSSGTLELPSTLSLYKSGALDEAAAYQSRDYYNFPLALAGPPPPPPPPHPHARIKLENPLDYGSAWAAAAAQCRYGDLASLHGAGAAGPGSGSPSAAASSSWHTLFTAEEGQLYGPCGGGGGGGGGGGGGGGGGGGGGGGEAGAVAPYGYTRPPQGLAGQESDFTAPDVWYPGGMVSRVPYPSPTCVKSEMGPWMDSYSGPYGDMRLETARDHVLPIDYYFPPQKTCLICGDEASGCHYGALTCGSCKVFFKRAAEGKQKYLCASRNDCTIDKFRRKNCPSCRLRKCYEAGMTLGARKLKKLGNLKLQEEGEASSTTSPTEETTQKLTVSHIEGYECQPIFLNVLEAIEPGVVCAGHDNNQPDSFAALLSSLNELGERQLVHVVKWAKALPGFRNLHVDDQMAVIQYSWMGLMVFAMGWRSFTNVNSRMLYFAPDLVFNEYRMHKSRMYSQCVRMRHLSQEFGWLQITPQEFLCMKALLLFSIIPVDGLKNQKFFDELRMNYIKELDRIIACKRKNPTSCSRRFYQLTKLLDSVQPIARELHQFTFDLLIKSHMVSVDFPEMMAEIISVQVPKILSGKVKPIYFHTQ
Put plainly: VCAP AR Degradation Assay. It is filed as cell-based. The following applies: for Y (AR degradation efficiency, % of DMSO control): class symbols *; for DC50: class symbols A-C, read-out: DC50. In a few lines:
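Compounds were plated as 10-point 1:3 series reaching 5 μM final, then VCaP cells were seeded onto them and incubated 24 h at 37 °C. Cells were lysed cold, and total AR was measured by sandwich ELISA relative to 0.1% DMSO wells.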

Consider `CC(C)c1cc(N2C(=S)N(c3cnc(C#N)c(C(F)(F)F)c3)C(=O)C2(C)C)ccc1OCCN1CCN(CC(=O)Nc2cccc(NC3CCC(=O)NC3=O)c2)[C@H](C(F)(F)F)C1` (stereo partly drawn) [Example 256, 2-((S)-4-(2-(4-(3-(6-cyano-5-(trifluoromethyl)pyridin-3-yl)-5,5-dimethyl-4-oxo-2-thioxoimidazolidin-1-yl)-2-isopropylphenoxy)ethyl)-2-(trifluoromethyl)piperazin-1-yl)-N-(3-(2,6-dioxopiperidin-3-ylamino)phenyl)acetamide], for which the “Y (AR degradation efficiency, % of DMSO control)” value was “** (25%<Y<=35%)” and the DC50 is 100 to 500 nM.

In the case of `CC(C)c1cc(N2C(=S)N(c3ccc(C#N)c(C(F)(F)F)c3)C(=O)C2(C)C)ccc1OCCN1CCN(CC(=O)Nc2cccc(NC3CCC(=O)NC3=O)c2)[C@H](C(F)(F)F)C1` (stereo partly drawn) [Example 257, 2-((S)-4-(2-(4-(3-(4-cyano-3-(trifluoromethyl)phenyl)-5,5-dimethyl-4-oxo-2-thioxoimidazolidin-1-yl)-2-isopropylphenoxy)ethyl)-2-(trifluoromethyl)piperazin-1-yl)-N-(3-(2,6-dioxopiperidin-3-ylamino)phenyl)acetamide], the “Y (AR degradation efficiency, % of DMSO control)” value was “*** (35%<Y<50%)” and the 50% degradation concentration (DC50) was in the range of 500 to 1000 nM.

Consider `C[C@@H]1CN(CCOc2ccc(N3C(=S)N(c4cnc(C#N)c(C(F)(F)F)c4)C(=O)C3(C)C)cc2C(C)(F)F)C[C@H](C)N1CC(=O)Nc1cc(C#N)cc(NC2CCC(=O)NC2=O)c1` (stereo partly drawn) [Example 258, N-(3-cyano-5-(2,6-dioxopiperidin-3-ylamino)phenyl)-2-((2S,6R)-4-(2-(4-(3-(6-cyano-5-(trifluoromethyl)pyridin-3-yl)-5,5-dimethyl-4-oxo-2-thioxoimidazolidin-1-yl)-2-(1,1-difluoroethyl)phenoxy)ethyl)-2.6-dimethylpiperazin-1-yl)acetamide], for which the “Y (AR degradation efficiency, % of DMSO control)” value was “* (0<Y<=25%)” and the DC50 was < 100 nM.

On to `C[C@@H]1CN(CCOc2ccc(N3C(=S)N(c4ccc(C#N)c(C(F)(F)F)c4)C(=O)C3(C)C)cc2C2CCC2)C[C@H](C)N1CC(=O)Nc1cccc(NC2CCC(=O)NC2=O)c1` (stereo partly drawn) [Example 259, 2-((2R,6S)-4-(2-(4-(3-(4-cyano-3-(trifluoromethyl)phenyl)-5,5-dimethyl-4-oxo-2-thioxoimidazolidin-1-yl)-2-cyclobutylphenoxy)ethyl)-2,6-dimethylpiperazin-1-yl)-N-(3-(2,6-dioxopiperidin-3-ylamino)phenyl)acetamide], for which the “Y (AR degradation efficiency, % of DMSO control)” value was “* (0<Y<=25%)” and the DC50 is < 100 nM.

Regarding `CCc1cc(N2C(=S)N(c3ccc(C#N)c(C(F)(F)F)c3)C(=O)C2(C)C)ccc1OCCN1CCN(CC(=O)Nc2cccc(NC3CCC(=O)NC3=O)c2)[C@H](CC)C1` (stereo partly drawn) [Example 260, 2-((R)-4-(2-(4-(3-(4-cyano-3-(trifluoromethyl)phenyl)-5,5-dimethyl-4-oxo-2-thioxoimidazolidin-1-yl)-2-ethylphenoxy)ethyl)-2-ethylpiperazin-1-yl)-N-(3-(2,6-dioxopiperidin-3-ylamino)phenyl)acetamide], the “Y (AR degradation efficiency, % of DMSO control)” value was “* (0<Y<=25%)” and the DC50 fell in the range of 100 to 500 nM.

As to `CC[C@@H]1CN(CCOc2ccc(N3C(=S)N(c4ccc(C#N)c(C(F)(F)F)c4)C(=O)C3(C)C)cc2C2CC2)CCN1CC(=O)Nc1cccc(NC2CCC(=O)NC2=O)c1` (stereo partly drawn) [Example 261, 2-((R)-4-(2-(4-(3-(4-cyano-3-(trifluoromethyl)phenyl)-5,5-dimethyl-4-oxo-2-thioxoimidazolidin-1-yl)-2-cyclopropylphenoxy)ethyl)-2-ethylpiperazin-1-yl)-N-(3-(2,6-dioxopiperidin-3-ylamino)phenyl)acetamide], the “Y (AR degradation efficiency, % of DMSO control)” value is “** (25%<Y<=35%)” and the DC50 is 100 to 500 nM.

Take `CC[C@@H]1CN(CCOc2ccc(N3C(=S)N(c4cnc(C#N)c(C(F)(F)F)c4)C(=O)C34CCC4)cc2C2CC2)CCN1CC(=O)Nc1cccc(NC2CCC(=O)NC2=O)c1` (stereo partly drawn) [Example 262, 2-((R)-4-(2-(4-(7-(6-cyano-5-(trifluoromethyl)pyridin-3-yl)-8-oxo-6-thioxo-5,7-diazaspiro[3.4]octan-5-yl)-2-cyclopropylphenoxy)ethyl)-2-ethylpiperazin-1-yl)-N-(3-(2,6-dioxopiperidin-3-ylamino)phenyl)acetamide]: the “Y (AR degradation efficiency, % of DMSO control)” value was “* (0<Y<=25%)” and the DC50 was in the range of 100 to 500 nM.

Take `CC[C@H]1CN(CCOc2ccc(N3C(=S)N(c4ccc(C#N)c(C(F)(F)F)c4)C(=O)C3(C)C)cc2C2CC2)CCN1CC(=O)Nc1cccc(NC2CCC(=O)NC2=O)c1` (stereo partly drawn) [Example 263, 2-((S)-4-(2-(4-(3-(4-cyano-3-(trifluoromethyl)phenyl)-5,5-dimethyl-4-oxo-2-thioxoimidazolidin-1-yl)-2-cyclopropylphenoxy)ethyl)-2-ethylpiperazin-1-yl)-N-(3-(2,6-dioxopiperidin-3-ylamino)phenyl)acetamide]: the “Y (AR degradation efficiency, % of DMSO control)” value was “* (0<Y<=25%)” and the DC50 is < 100 nM.

In the case of `CCc1cc(N2C(=S)N(c3ccc(C#N)c(C(F)(F)F)c3)C(=O)C23CCCCC3)ccc1OCCN1C[C@@H](C)N(CC(=O)Nc2cccc(NC3CCC(=O)NC3=O)c2)[C@@H](C)C1` (stereo partly drawn) [Example 264, 2-((2S,6R)-4-(2-(4-(3-(4-cyano-3-(trifluoromethyl)phenyl)-4-oxo-2-thioxo-1,3-diazaspiro[4.5]decan-1-yl)-2-ethylphenoxy)ethyl)-2,6-dimethylpiperazin-1-yl)-N-(3-(2,6-dioxopiperidin-3-ylamino)phenyl)acetamide], the “Y (AR degradation efficiency, % of DMSO control)” value was “* (0<Y<=25%)” and the DC50 was < 100 nM.

On to `C[C@@H]1CN(CCOc2ccc(N3C(=S)N(c4cnc(C#N)c(C(F)(F)F)c4)C(=O)C34CCC4)cc2C(C)(F)F)C[C@H](C)N1CC(=O)Nc1cccc(NC2CCC(=O)NC2=O)c1` (stereo partly drawn) [Example 265, 2-((2S,6R)-4-(2-(4-(7-(6-cyano-5-(trifluoromethyl)pyridin-3-yl)-8-oxo-6-thioxo-5,7-diazaspiro[3.4]octan-5-yl)-2-(1,1-difluoroethyl)phenoxy)ethyl)-2,6-dimethylpiperazin-1-yl)-N-(3-(2,6-dioxopiperidin-3-ylamino)phenyl)acetamide], for which the “Y (AR degradation efficiency, % of DMSO control)” value is recorded as “* (0<Y<=25%)” and the DC50 is < 100 nM.

Take `C[C@@H]1CN(CCOc2ccc(N3C(=S)N(c4ccc(C#N)c(C(F)(F)F)c4)C(=O)C34CCCC4)cc2C2CC2)C[C@H](C)N1CC(=O)Nc1cccc(NC2CCC(=O)NC2=O)c1` (stereo partly drawn) [Example 266, 2-((2S,6R)-4-(2-(4-(3-(4-cyano-3-(trifluoromethyl)phenyl)-4-oxo-2-thioxo-1,3-diazaspiro[4.4]nonan-1-yl)-2-cyclopropylphenoxy)ethyl)-2,6-dimethylpiperazin-1-yl)-N-(3-(2,6-dioxopiperidin-3-ylamino)phenyl)acetamide]: the “Y (AR degradation efficiency, % of DMSO control)” value is listed as “* (0<Y<=25%)” and the DC50 is < 100 nM.

On to `CCc1cc(N2C(=S)N(c3ccc(C#N)c(C(F)(F)F)c3)C(=O)C23CCCC3)ccc1OCCN1C[C@@H](C)N(CC(=O)Nc2cccc(NC3CCC(=O)NC3=O)c2)[C@@H](C)C1` (stereo partly drawn) [Example 267, 2-((2S,6R)-4-(2-(4-(3-(4-cyano-3-(trifluoromethyl)phenyl)-4-oxo-2-thioxo-1,3-diazaspiro[4.4]nonan-1-yl)-2-ethylphenoxy)ethyl)-2,6-dimethylpiperazin-1-yl)-N-(3-(2,6-dioxopiperidin-3-ylamino)phenyl)acetamide], for which the “Y (AR degradation efficiency, % of DMSO control)” value was “* (0<Y<=25%)” and the DC50 is < 100 nM.

Consider `C[C@@H]1CN(CCOc2ccc(N3C(=S)N(c4cnc(C#N)c(C(F)(F)F)c4)C(=O)C3(C)C)cc2C2CCC2)C[C@H](C)N1CC(=O)Nc1cccc(NC2CCC(=O)NC2=O)c1` (stereo partly drawn) [Example 268, 2-((2R,6S)-4-(2-(4-(3-(6-cyano-5-(trifluoromethyl)pyridin-3-yl)-5,5-dimethyl-4-oxo-2-thioxoimidazolidin-1-yl)-2-cyclobutylphenoxy)ethyl)-2,6-dimethylpiperazin-1-yl)-N-(3-(2,6-dioxopiperidin-3-ylamino)phenyl)acetamide], for which the “Y (AR degradation efficiency, % of DMSO control)” value was “** (25%<Y<=35%)” and the DC50 is < 100 nM.
